Measurements taken from ChEMBL document CHEMBL6120958, “A Highly Atom-Efficient Prodrug Approach to Generate Synergy between H2S and Nonsteroidal Anti-inflammatory Drugs and Improve Safety” (J Med Chem, 2024).
Activity calls are given as the source filed them. The calls are words filed in the database; no cut-off is given here.

How the values were obtained:
[1] = Stability of the compound in PBS at 500 uM measured within 144 hrs at pH 7.4 at 37 degC by HPLC analysis; type: physicochemical; settings: buffer, pH 7.4, 144 h
[2] = Stability of the compound in PBS at 500 uM measured for 3 months at pH 7.4 at -20 degC by HPLC analysis; type: physicochemical; settings: buffer, pH 7.4, 2190 h
Mus musculus [3] = test: (§1) Protection against ischemia/reperfusion injury in middle cerebral artery occlusion C57BL/6J mouse model assessed as decrease in infarct size in brain at 100 umol/kg, iv administered within initial 20 mins of ischemia period followed by reperfusion for 24 hrs after 1 hr and 20 mins of ischemia period and measured at 24 hrs post-reperfusion by TTC staining based analysis; type: functional, organism-based; settings: dose 100.0 µmol/kg, time 2960.0 min
Mus musculus [4] = test: as §1, with “malondialdehyde level” for “infarct size”, “post-reperfusion” for “post-reperfusion by TTC staining based analysis”; type: functional, organism-based; settings: dose 100.0 µmol/kg, time 2960.0 min
[5] = target: T1, Prostaglandin G/H synthase 1 (Ovis aries, UniProt P05979); test: Inhibition of ovine COX1 assessed as reduction in PGF2alpha production using arachidonic acid as substrate preincubated with enzyme for 10 mins followed by substrate addition and measured after 2 mins by ELISA
T1 sequence (P05979 whole entry): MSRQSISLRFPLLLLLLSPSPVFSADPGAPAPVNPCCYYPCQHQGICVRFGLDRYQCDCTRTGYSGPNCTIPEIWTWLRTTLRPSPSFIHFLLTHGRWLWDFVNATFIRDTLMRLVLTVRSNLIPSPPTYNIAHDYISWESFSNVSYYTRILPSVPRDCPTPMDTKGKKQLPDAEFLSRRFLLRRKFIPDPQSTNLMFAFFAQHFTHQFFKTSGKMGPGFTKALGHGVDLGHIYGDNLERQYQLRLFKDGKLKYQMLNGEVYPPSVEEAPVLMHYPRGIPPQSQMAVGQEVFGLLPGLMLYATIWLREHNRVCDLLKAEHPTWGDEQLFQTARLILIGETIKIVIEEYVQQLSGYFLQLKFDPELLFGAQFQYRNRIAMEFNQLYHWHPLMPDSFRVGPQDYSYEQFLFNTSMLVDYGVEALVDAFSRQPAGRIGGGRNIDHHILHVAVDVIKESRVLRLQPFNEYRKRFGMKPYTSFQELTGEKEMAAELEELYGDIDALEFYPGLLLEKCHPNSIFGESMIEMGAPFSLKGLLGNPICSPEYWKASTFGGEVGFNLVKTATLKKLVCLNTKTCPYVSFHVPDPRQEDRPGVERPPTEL

[6] = Stability of the compound in rat plasma assessed as half life by LC-MS/MS analysis; type: ADME, cell-free
Liver carboxylesterase [7] = target: T2, Liver carboxylesterase (Sus scrofa, UniProt Q29550); test: Prodrug release in PBS assessed as porcine liver esterase-mediated hydrolysis by measuring H2S concentration at 500 uM measured at pH 7.4 after 5 hrs by methylene blue method; type: ADME; settings: pig, isolated protein, pH 7.4, 5 h
T2 sequence (Q29550 whole entry): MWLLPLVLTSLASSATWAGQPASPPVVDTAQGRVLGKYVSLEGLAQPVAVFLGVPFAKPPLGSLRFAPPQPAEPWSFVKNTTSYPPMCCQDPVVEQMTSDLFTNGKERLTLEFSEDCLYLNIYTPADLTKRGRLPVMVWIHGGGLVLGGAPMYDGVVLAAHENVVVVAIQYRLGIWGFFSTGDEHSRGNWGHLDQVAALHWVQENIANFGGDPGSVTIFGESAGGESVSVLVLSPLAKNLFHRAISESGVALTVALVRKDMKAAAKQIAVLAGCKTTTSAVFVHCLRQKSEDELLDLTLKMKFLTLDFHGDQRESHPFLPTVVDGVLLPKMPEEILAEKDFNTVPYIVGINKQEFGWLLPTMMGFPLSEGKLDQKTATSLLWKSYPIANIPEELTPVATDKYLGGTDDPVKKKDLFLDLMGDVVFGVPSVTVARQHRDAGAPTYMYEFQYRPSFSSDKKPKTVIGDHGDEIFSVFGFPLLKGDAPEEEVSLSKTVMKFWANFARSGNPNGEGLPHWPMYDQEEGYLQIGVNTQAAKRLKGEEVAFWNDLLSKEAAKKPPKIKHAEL

Rattus norvegicus [8] = test: Prodrug release in Sprague-Dawley rat assessed as benzoic acid level in blood at 80 umol/kg, iv measured after 5 mins by LC-MS/MS analysis; type: ADME, organism-based; settings: in vivo, dose 80 µmol/kg
Liver carboxylesterase [9] = target: T2, Liver carboxylesterase; test: Prodrug release in PBS assessed as porcine liver esterase-mediated hydrolysis at 500 uM measured at pH 7.4 in presence of PMSF by HPLC analysis; type: ADME; settings: pig, isolated protein, pH 7.4, 500 µM
Liver carboxylesterase [10] = target: T2, Liver carboxylesterase; test: Prodrug release in PBS assessed as porcine liver esterase-mediated hydrolysis by measuring peak H2S concentration at 500 uM measured at pH 7.4 after 80 mins by methylene blue method; type: ADME; settings: pig, isolated protein, pH 7.4, 1.333 h
Rattus norvegicus [11] = test: Prodrug release in Sprague-Dawley rat assessed as benzoic acid level in blood at 80 umol/kg, iv measured after 1 min by LC-MS/MS analysis; type: ADME, organism-based; settings: in vivo, dose 80 µmol/kg
Liver carboxylesterase [12] = target: T2, Liver carboxylesterase; test: Prodrug release in PBS assessed as porcine liver esterase-mediated hydrolysis by measuring half-life at 500 uM measured at pH 7.4 by HPLC analysis; type: ADME; settings: pig, isolated protein, pH 7.4, 500 µM
[13] = Stability in Sprague-Dawley rat assessed as parent compound level in blood at 80 umol/kg, iv measured after 5 mins by LC-MS/MS analysis; type: ADME, organism-based; settings: whole blood, dose 80 µmol/kg, read-out: Stability
Mus musculus [14] = test: Prodrug release in C57BL/6J mouse assessed as increase in H2S concentration in blood at 50 umol/kg, iv measured after 15 mins by gas chromatography; type: ADME, organism-based; settings: in vivo, 0.25 h, dose 50 µmol/kg
[15] = Stability in Sprague-Dawley rat assessed as parent compound level in blood at 80 umol/kg, iv measured after 1 min by LC-MS/MS analysis; type: ADME, organism-based; settings: whole blood, dose 80 µmol/kg, read-out: Stability
Liver carboxylesterase [16] = target: T2, Liver carboxylesterase; test: Prodrug release in PBS assessed as porcine liver esterase-mediated hydrolysis by measuring peak H2S concentration at 500 uM measured at pH 7.4 after 90 mins by methylene blue method; type: ADME; settings: pig, isolated protein, pH 7.4, 1.5 h

Structure (SMILES)	Stability [1]	Stability [2]	half-life [6]	further results
Cc1ccc(CC(=O)[S-])cc1.[Na+]	Stable	Stable	–	–
OC(=S)c1ccccc1	–	–	–	Activity (Mus musculus [3]): Active; Comparable Efficacy To Na2S Observed; Activity (Mus musculus [4]): Active
O=C([S-])Cc1ccc2ccccc2c1.[Na+]	Stable	Stable	–	–
COc1ccc2cc([C@H](C)C(=O)[S-])ccc2c1.[Na+]	Stable	Stable	6.73 h	IC50 [5]: 1300 nM
O=C([S-])c1ccccc1.[Na+]	Stable	Stable	2.17 h	Drug metabolism (Liver carboxylesterase [7]): metabolite_detected; Drug metabolism (Rattus norvegicus [8]): 78.3 µM; Drug metabolism (Liver carboxylesterase [9]): metabolite_notdetected; Drug metabolism (Liver carboxylesterase [10]): 70 µM; Drug metabolism (Rattus norvegicus [11]): 46.4 µM; t1/2 (Liver carboxylesterase [12]): 2.51 h; concentration at 5 min [13]: 113 µM; Drug metabolism (Mus musculus [14]): metabolite_detected; concentration at 1 min [15]: 439 µM
O=C([S-])Cc1ccccc1.[Na+]	Stable	Stable	–	–
COc1ccc2c(c1)c(CC(=O)[S-])c(C)n2C(=O)c1ccc(Cl)cc1.[Na+]	Stable	Stable	21.3 h	IC50 [5]: 7.6 nM; t1/2 (Liver carboxylesterase [12]): 4.45 h; Drug metabolism (Liver carboxylesterase [16]): 29 µM
O=C([S-])c1ccc2ccccc2c1.[Na+]	Stable	Stable	–	–
